According to US8257714B2, “Compositions and methods for immunotherapy of cancer and infectious diseases” (priority 2003, dated 2012):
Ends that are not written are not given here.

Columns and labels:
[1] = tested on: freshly isolated dendritic cells (CD11c+ splenocytes); assay: Dendritic cell (DC) assay: IL12 release from freshly isolated dendritic cells; format: cell-based, BALB/c mice; conditions: for DC mIL12 Release: tested for synergism and inhibition
Text: In a preferred embodiment, dendritic cell (DC) assay is used to follow interleukin-12 (IL-12) release from freshly isolated dendritic cells as an index of DC activation (see section 12.3). […] Briefly, by way of example but not limitation, a DC assay can be carried out as follows: freshly isolated dendritic cells (CD11c^+ splenocytes, e.g., isolated from the spleens of BALB/c mice within ten hours of assaying the activity) are suspended at a density of 0.5×10^6 cells per mL in cytokine supplemented culture media (GM-CSF, 1.0 ng/ml; IL-4, 1.0 ng/ml; IFNg, 3.0 ng/ml; anti mouse CD40, 0.5 mg/ml). […] Mouse IL-12 release from the dendritic cells (CD11c^+ splenocytes) is then measured using ELISA.
To follow the activity in semi-purified preparations of BEX, an assay which follows IL12 release from freshly isolated dendritic cells (DCs) as an index of DC activation was developed. This activity is highly correlated with both NK-CMC in vitro and anti-tumor activity in vivo.
DCs were isolated from the spleens of male BALB/c mice 8-12 weeks of age (Harlan Bioproducts for Science, Indianapolis, Ind.), using the magnetic assisted cell separation (MACS) system purchased from Miltenyi Biotech. In summary: Spleens were aseptically removed from mice and placed into a petri dish containing 5 mL holding media (DMEM/F12 supplemented with 10% FCS and antibiotics). Each spleen was then injected with ˜0.5 mls collagenase D solution (1 mg/mL in 10 mM Hepes-NaOH, pH 7.4, 150 mM NaCl, 5 mM MgCl2, 1.8 mM CaCl2), placed into 5-10 mL collagenase D, cut into 5-6 pieces and incubated at 37° C. for 45-60 min. Collagenase-digested spleens were then processed with glass slides and passed through a 70 μm nylon mesh cell strainer. After the strainer was flushed with 40 mL culture media, cells were centrifuged (8 min @ 200×G), suspended in 1 mL PBS and subjected to red blood cell lysis by incubating the cell suspension for 5 min at room temperature in 10 mL lysis buffer (155 mM NH4Cl, 10 mM KHCO3, 0.1 mM EDTA), followed by dilution in PBS to 50 mL and centrifugation (8 min @ 200×g). The splenocytes were then suspended in 10 mL MACS buffer (PBS pH 7.2, supplemented with 2 mM EDTA and 0.5% BSA), passed through a 40 μm nylon mesh cell strainer which was flushed with 40 mL MACS buffer. A preliminary cell count was taken at this time, prior to centrifugation (8 min @ 200×G). The splenocytes were suspended at a density of 10^8 cells per 400 μL MACS buffer. Paramagnetic MicroBeads coated with anti-CD11c^+ antibody were mixed with the splenocyte suspension (100 μL per 10^8 cells), incubated at +4° C. for 15 min, washed, suspended in 1.0 mL MACS buffer and passed through a MS+ separation column placed within a strong magnetic field. CD11c^+ cells were retained in the column whereas CD11c^− cells were washed off the column as the flow-through cell fraction. CD11c^+ cells were then collected by removing the column out of the magnetic field and flushing the column twice with 1 mL of MACS buffer. CD11c^+ cells were washed once with culture media and suspended at a density of 0.5×10^6 cells per mL in cytokine supplemented culture media {DMEM/F12 supplemented with 10% FCS and gentamicin containing mouse GM-CSF (1 ng/mL), mouse IL-4 (1 ng/mL), mouse IFNγ (3 ng/mL) and anti mouse CD40 (0.5 mg/mL)}.
Mouse IL12 release from CD11c^+ splenocytes was measured using ELISA. Briefly, CD11c+ cell culture supernatants were sampled following an overnight incubation (usually 15-18 hrs). Media samples ([…]) were added to ELISA plates coated with anti mouse IL12 (p70) capture antibody (R&D #MAB419; 250 ng in 100 μL per well) and incubated either at 37° C. or room temperature for 2 hrs. The ELISA plates were washed extensively with wash buffer after which 100 μL per well of detection antibody/detection reagent (biotinylated anti-mouse IL12; R&D #BAF419 at 50 ng/mL and streptavidin-HRP) was added. […]

[2] = tested on: Mouse sarcoma 180 cells; assay: NK cell-mediated cytotoxicity (NK-CMC) assay, LGL/S180 co-culture; format: cell-based; conditions: for NK-CMC Activity: wide range of concentrations, presence and absence of IL-2 (125 U/ml)
Description: In one embodiment, a NK cell assay is used to assess ARP-induced cytotoxic activity of NK-like cells (see section 12.2). Briefly, by way of example but not limitation, a NK cell assay can be carried out as follows: large granular lymphocytes (LGLs) are co-cultured with tumor cells at various ratios (effector to target ratio) for four days at 37° C., 5% CO2. […] The culture is terminated at the end of day 4 and vitally stained using a MTT cell viability quantification assay (see Mossman, T. J. Immunol. Methods 65: 55 (1983); and Sigma Chemical MTT (M5655) product application note). Culture media is aspirated and the remaining cells are washed and replaced with DMEM/F12 plus FCS, containing MTT. The cells are further incubated for 4-5 hours at 37° C. Absorbance is measured with the aid of a plate reader. Decreased absorbance indicated a decrease in the number of viable cells per well (i.e., cytotoxicity). Absorbance is measured again after the MTT is solubilized by replacement of the medium with 2-propanol containing HCl, which gives a uniform color throughout the well. NK-inducing activity is calculated relative to negative (PBS/BSA) and positive (internal standard) controls.
Spleens (10-15 per experiment) were aseptically removed from male Balb/C mice 6-10 weeks of age. Splenocytes were “squeezed” out of spleens using 2 sterile glass microscope slides. Cells were collected in approximately 10 ml of DMEM/F 12 containing 10% fetal calf serum (FCS) and gentamicin (50 μg/ml). Single cell suspensions were generated by passing collected cells through a 70 μm nylon mesh screen. After washing the cell pellet once with PBS (centrifuged at 675×g for 5 min), red blood cells were lysed by brief hypotonic shock (i.e. exposure to sterile distilled, deionized water, followed immediately with appropriate volumes of 10×PBS to return to isotonicity). Remaining cells were centrifuged and resuspended in DMEM/F12+10% FCS and transferred to 75 cm^2 flasks each containing 25 mls DMEM/F12+10% FCS (cells from 5 spleens per flask). The cells were incubated for 60 min. at 37° C. to selectively remove readily adherent cells (mainly fibroblasts and macrophages). After the incubation, the flasks were gently shaken and the non-adherent cells were removed, pelleted by centrifugation, and resuspended in DMEM/F12 (no supplements) (1.0 mL/10^8 cells). A 1.0 mL volume of these cell suspensions were carefully layered onto a 70%/60%/40% (2 mL/4 mL/4 mL) Percoll™ gradients in 15 ml centrifuge tubes and centrifuged for 30 min at 675×G. The cells which sediment at the 40/60 interface represent primarily large granular lymphocytes (LGLs), enriched with NK cells. These cells were carefully removed with a pasteur pipet, centrifuged, washed once with PBS and resuspended in approximately 5 mL DMEM/F12 supplemented with gentamicin (50 μg/mL) and 10% fetal calf serum. Cell counts and appropriate dilutions of LGL cells were made with these cells, as described below. For convenience this LGL cell preparation is interchangeably referred to as NK cells.
Mouse sarcoma 180 cells were seeded into 96 well plates at a density of 5×10^3 cells per well in 100 μl DMEM/F12, supplemented with 10% FCS and gentamicin (50 μg/mL). […] NK cells were added in 100 μL of supplemented DMEM/F12 at designated densities: 0 NK cells/well; 5×10^4 NK cells/well (1:10 target/effector ratio); 1.25×10^5 NK cells/well (1:25 target/effector ratio); 2.5×10^5 NK cells/well (1:50 target/effector ratio); and, 5×10^5 NK cells/well (1:100 target/effector ratio). (Note: routinely, only the 1:50 and 1:100 ratios were used for screening purposes. IL2 was added as a media supplement with final concentration of 125 U/mL.). Co-cultures were incubated for 4 days at 37° C., 5% CO2, and terminated and vitally stained using a MTT cell viability quantification assay (see Mossman, T. J. Immunol. Methods 65:55 (1983); and Sigma Chemical MTT (M5655) product application note). […]

In the case of N[C@@H](CCC(=O)N[C@@H](CS)C(=O)NCC(=O)O)C(=O)O [reduced glutathione], the “effect on responses in the DC assay” value ([1]; excess added to the assay system) is reported as “lowered the responses”.

In the case of “Cecropin A: defensin / anti-microbial peptide (KWKLFKKIEKVGQNIRDGIIKAGPAVAVVGQATQIAK; UniProt P01507 27-63, looked up)”, the “NK-CMC Activity” value [2] is reported as “−”.

For “Cecropin B: defensin / anti-microbial peptide (KWKVFKKIEKMGRNIRNGIVKAGPAIAVLGEAKAL; ends and bridges not checked; UniProt P01508 27-61, looked up)”, the “NK-CMC Activity” value [2] was “−”.

In the case of Cecropin P1, the “NK-CMC Activity” value [2] is reported as “−”.

For FGFbasic: growth factor, the “NK-CMC Activity” value [2] was “−” and the “DC mIL12 Release” value [1] was “−”.

In the case of IFN α, the “NK-CMC Activity” value [2] is reported as “−”.

With IL-1 β: interleukin the “NK-CMC Activity” value [2] was “−^3” and the “DC mIL12 Release” value [1] was “−”.

With IL-5: interleukin the “NK-CMC Activity” value [2] was “−” and the “DC mIL12 Release” value [1] was “−”.

IL-6: interleukin was tested, and the “NK-CMC Activity” value [2] was “−” and the “DC mIL12 Release” value [1] was “−”.

For IL-15: interleukin, the “NK-CMC Activity” value [2] was “−”.

In the case of JE/MCP-1: chemokine, the “NK-CMC Activity” value [2] is reported as “−”.

Magainin I was tested, and the “NK-CMC Activity” value [2] was “−”.

Magainin II was tested, and the “NK-CMC Activity” value [2] was “−”.

For TGF α: growth factor, the “NK-CMC Activity” value [2] was “−”.

For TGF β, the “NK-CMC Activity” value [2] was “−” and the “DC mIL12 Release” value [1] was “−”.

TNF α was tested, and the “DC mIL12 Release” value [1] was “−”.

“truncated molecule lacking GEADTQAWDTSVREWLVDT: E. tenella ARP with start codon moved to the 21th position (listed as Eimeria tenella)” was tested, and the “DC-activity compared to full-length ARP” value ([1]; recombinant E. tenella ARP variants) was “activity was lost”.

B1: KC: chemokine (protein, UniProt P12850 25-96, looked up)
Growth-regulated alpha protein: APIANELRCQCLQTMAGIHLKNIQSLKVLPSGPHCTQTEVIATLKNGREACLDPEAPLVQKIVQKMLKGVPK
With B1 the “NK-CMC Activity” value [2] was “−”.

B2: IL-2: Interleukin 2 (protein, UniProt P04351 21-169, looked up)
Interleukin-2: APTSSSTSSSTAEAQQQQQQQQQQQQHLEQLLMDLQELLSRMENYRNLKLPRMLTFKFYLPKQATELKDLQCLEDELGPLRHVLDLTQSKSFQLEDAENFISNIRVTVVKLKGSDNTFECQFDDESATVVDFLRRWIAFCQSIISTSPQ
In the case of B2, the “DC mIL12 Release” value [1] is reported as “−”.

B3: IL-4: interleukin (protein, UniProt P07750 21-140, looked up)
Interleukin-4: HIHGCDKNHLREIIGILNEVTGEGTPCTEMDVPNVLTATKNTTESELVCRASKVLRIFYLKHGKTPCLKKNSSVLMELQRLFRAFRCLDSSISCTMNESKSTSLKDFLESLKSIMQMDYS
With B3 the “NK-CMC Activity” value [2] was “−”.

B4: IL-11: interleukin (protein, UniProt P20809 22-199, looked up)
Interleukin-11: PGPPPGPPRVSPDPRAELDSTVLLTRSLLADTRQLAAQLRDKFPADGDHNLDSLPTLAMSAGALGALQLPGVLTRLRADLLSYLRHVQWLRRAGGSSLKTLEPELGTLQARLDRLLRRLQLLMSRLALPQPPPDPPAPPLAPPSSAWGGIRAAHAILGGLHLTLDWAVRGLLLLKTRL
For B4, the “NK-CMC Activity” value [2] was “−”.

B5: IL-7: interleukin (protein, UniProt P10168 26-154, looked up)
Interleukin-7: ECHIKDKEGKAYESVLMISIDELDKMTGTDSNCPNNEPNFFRKHVCDDTKEAAFLNRAARKLKQFLKMNISEEFNVHLLTVSQGTQTLVNCTSKEEKNVKEQKKNDACFLKRLLREIKTCWNKILKGSI
With B5 the “NK-CMC Activity” value [2] was “−”.

B6: MIP-1 α: chemokine (protein, UniProt P10147 24-92, looked up)
C-C motif chemokine 3: SLAADTPTACCFSYTSRQIPQNFIADYFETSSQCSKPGVIFLTKRSRQVCADPSEEWVQKYVSDLELSA
In the case of B6, the “NK-CMC Activity” value [2] is reported as “−”.

B7: IL-18: interleukin (protein, UniProt P70380 36-192, looked up)
Interleukin-18: NFGRLHCTTAVIRNINDQVLFVDKRQPVFEDMTDIDQSASEPQTRLIIYMYKDSEVRGLAVTLSVKDSKMSTLSCKNKIISFEEMDPPENIDDIQSDLIFFQKRVPGHNKMEFESSLYEGHFLACQKEDDAFKLILKKKDENGDKSVMFTLTNLHQS
With B7 the “DC mIL12 Release” value [1] was “−”.

B8: IFNγ: Interferon-gamma (protein, UniProt P01580 23-155, looked up)
Interferon gamma: HGTVIESLESLNNYFNSSGIDVEEKSLFLDIWRNWQKDGDMKILQSQIISFYLRLFEVLKDNQAISNNISVIESHLITTFFSNSKAKKDAFMSIAKFEVNNPQVQRQAFNELIRVVHQLLPESSLRKRKRSRC
In the case of B8, the “NK-CMC on direct addition” value ([2]; added directly to NK/S180 co-cultures) is reported as “slight increase”, the “maximal response in the presence of IL-2” value ([2]; table footnote) is reported as “^6Weakly activates NK cells in the presence of IL-2 (maximal response <50% cytotoxicity)” and the “DC mIL12 Release” value [1] is reported as “−”.
